Measurements published in US20230151024A1, “STING AGONISTIC COMPOUND” (ONO PHARMACEUTICAL CO., LTD., priority 2020, published 2023).

Columns and labels:
THP1-Dual-STING KO cells = experiment: Effects on THP1-Dual-STING KO cells (activity of the IRF pathway); format: cell-based; conditions: STING gene homozygous deficient THP1-Dual cells, about 24 hours
Procedure: STING gene homozygous deficient THP1-Dual cells (THP1-Dual-STING KO cells (Invivogen) were suspended in RPMI medium to prepare 2×10^6 cells/mL cell suspension. 50 μL of cell suspensions were dispensed into a 96-well plate, to which 50 μL of 6 to 20,000 nM compound solutions were further added, followed by incubation at 37° C. for about 24 hours. 10 μL of the cell suspensions were collected from each well, which were mixed with 50 μL of Quanti-luc (Invivogen), and then the activity of the IRF pathway was measured by detecting luminescence using a microplate reader.

IDO1 = target: T1, IDO1 (Homo sapiens, UniProt P14902); experiment: Evaluation of IDO1 inhibitory activity (IDO1 Fluorogenic Inhibitor Screening Assay Kit); format: biochemical; conditions: compound solutions of 0.6, 2, 6, 20, 60 and 200 μmol/L added
T1 construct: purchased BPS Bioscience
T1 sequence (P14902 whole entry): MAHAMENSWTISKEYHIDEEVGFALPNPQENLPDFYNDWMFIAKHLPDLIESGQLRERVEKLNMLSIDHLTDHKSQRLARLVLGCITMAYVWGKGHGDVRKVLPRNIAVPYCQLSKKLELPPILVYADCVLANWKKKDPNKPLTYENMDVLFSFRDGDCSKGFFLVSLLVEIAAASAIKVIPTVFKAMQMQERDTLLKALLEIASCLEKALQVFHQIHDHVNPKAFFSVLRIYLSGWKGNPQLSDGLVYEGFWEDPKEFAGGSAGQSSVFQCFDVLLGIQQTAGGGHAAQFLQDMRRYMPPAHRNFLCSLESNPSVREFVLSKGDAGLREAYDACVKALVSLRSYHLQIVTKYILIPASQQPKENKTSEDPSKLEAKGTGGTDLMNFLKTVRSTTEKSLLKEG
Procedure: The evaluation of IDO1 inhibitory activity was carried out using the IDO1 Fluorogenic Inhibitor Screening Assay Kit (BPS Bioscience). Specifically, IDO1 Fluorogenic Reaction Solution was dissolved, of which 180 μL were added to each well. Then, 10 μL of the compounds at the respective concentrations of 0.6, 2, 6, 20, 60 and 200 μmol/L were added thereto. Further, after adding 10 μL of IDO1 His-Tag solution thereto, and the mixture thereof was incubated at room temperature for 1 hour, and then 20 μL of Fluorescence Solution was added thereto, and the mixture thereof was incubated at 37° C. for 4 hours. After standing them at room temperature for 10 minutes, the fluorescence was measured using a microplate reader (excitation: 400 nm, emission: 510 nm).

[1] = tested on: BTK, KDR, each subtype of PKCα to t, each CDK of CDK2 to 9, FAK, TIE2, RAF1 and BRAF; experiment: Evaluation of inhibitory activity against various kinases (mobility shift, LabChip); format: biochemical; conditions: 4 μmol/L test substance solution at 4 times the final concentration
Procedure: 4 μmol/L of the test substance solution (the compound in the present invention produced in Example 1) (at 4 times the final concentration) was prepared by dissolving it to the assay buffer (20 mmol/L HEPES, 0.01% Triton X-100, 1 mmol/L DTT, pH 7.5). 4 μmol/L of the substrate/ATP/metal solution (at 4 times the final concentration) was prepared by dissolving it to the kit buffer (20 mmol/L HEPES, 0.01% Triton X-100, 5 mmol/L DTT, pH 7.5). Various kinase solutions at twice the final concentration were prepared by dissolving them to the assay buffer. 5 μL of the test substance solution, 5 μL of the substrate/ATP/metal solution and 10 μL of the kinase solution were mixed in wells of a polypropylene 384-well plate, and the mixture thereof was reacted at room temperature for 1 to 5 hours. The reaction was stopped by adding 70 μL of the termination buffer (QuickScout Screening Assist MSA; Carna Biosciences). The substrate peptide and phosphorylated peptide in the reaction solution were separated and quantified by LabChip system (Perkin Elmer). The kinase reaction was evaluated based on the product ratio (P/(P+S)) calculated from the peak height (S) of the substrate peptide and the peak height (P) of the phosphorylated peptide. The various kinases used in this evaluation are as follows:
BTK, KDR, each subtype of PKCα to t, each CDK of CDK2 to 9, FAK, TIE2, RAF1 and BRAF.

[2] = tested on: colon cancer cell line MC38; experiment: Anti-tumor effect in a subcutaneously colon cancer cell line MC38 tumor-bearing mouse model (Example 17); format: in vivo, mice (C57/BL6); conditions: 3 mg/kg, administered 7 days after MC38 transplantation, measured until Day 26
Procedure: Colon cancer cell line MC38 derived from C57/BL6 mice were subcutaneously transplanted to right flank region of syngeneic mice (C57/BL6, female, 6 weeks old (Charles River Japan)) (herein, the day of transplantation was designated as Day 0) to prepare subcutaneously MC38 tumor-bearing mice. Seven days after transplantation, the subcutaneously MC38 tumor-bearing mice were grouped based on tumor volume, and the Vehicle group (n=8) and group to which the compound shown in Example 1 (3 mg/kg, n=6) was administered were set. The changes in tumor volume were continuously measured until 26 days after transplantation (Day 26). The tumor volume was calculated by the following formula:
[Tumor volume (mm^3)]=[major axis (mm)]×[minor axis (mm)]^2×0.5

[3] = Conversion of a prodrug to an active body thereof in mouse plasma; format: in vitro ADME; conditions: 1 μmol/L, 37° C. for 60 minutes, conversion to the compound in Example 3
Procedure: (§1) The solutions of the example compounds in Table 5 below (50 μmol/L, 50% acetonitrile with 5% DMSO) were added to plasma (245 μL), respectively, such that the final concentrations thereof become 1 μmol/L. After keeping them at 37° C. for 60 minutes, 40 μL of the reaction solutions were taken therefrom, and added to 200 μL of acetonitrile/ethanol (7:3) containing Candesartan (internal standard).
(§2) The concentration of the compound prepared in Example 3 in the plasma resulting from the above reaction was analyzed by LC-MS/MS according to the following method.
(§3) Prominence UFLCXR (Shimadzu Corporation), API5000 (AB Sciex)
(§4) The whole amount was transferred to a filter plate for protein removal and filtered by suction, and the filtrate thereof was diluted 2-fold with water. [LC column] Shim-pack XR-ODSII 2.0 mm ID x 75 mm (Shimadzu Corporation)
(§5) Column temperature: 40° C. Mobile phase: A: 0.2% formic acid in 5 mM ammonium acetate solution; and
(§6) Electrospray, positive mode, multiple reaction monitoring;
(§7) Compound prepared in Example 3: m/z353.0→m/z311.2, DP: 80, CE: 35; and Candesartan (internal standard): m/z309.1→m/z163.0, DP: 71, CE: 21.
(§8) A regression formula was calculated from the peak area ratio of the real sample and the standard sample for the calibration curve in the same matrix (peak area of the compound in Example 3/peak area of Candesartan), and the peak area ratio of the real sample was substituted into the regression formula to calculate the quantitative value. 60 minutes later, the concentration of the compound in Example 3 in the sample was compared, and the conversion rate (%) thereof was calculated using the following formula:
(§9) Conversion rate (%)=Concentration of the compound in Example 3 in the sample after 60 minutes (μmol/L)×100

[4] = Conversion of a prodrug to an active body thereof in human plasma; format: in vitro ADME; conditions: 1 μmol/L, 37° C. for 60 minutes, conversion to the compound in Example 3
Procedure: as §1, §2, §3, §4, §5, §6, §7, §8, §9

## COC(=O)c1cc(-c2ncc(-c3cn[nH]c3)c3onc(N)c23)c(F)cc1N [Example 1, methyl 2-amino-5-(3-amino-7-(1H-pyrazol-4-yl)isoxazolo[4,5-c]pyridin-4-yl)-4-fluorobenzoate]
THP1-Dual-STING KO cells
  IRF activating effect: no IRF activating effect
IDO1
  IDO1 inhibitory activity: no IDO1 inhibitory activity
[1]
  inhibitory activity against various kinases: no significantly inhibit activities
[2]
  tumor growth (tumor volume): almost completely suppressed the tumor growth

## CC(=O)c1cc(-c2ncc(-c3cnn(COP(=O)(O)O)c3)c3onc(N)c23)c(F)cc1N [Example 10(1), (4-(4-(5-acetyl-4-amino-2-fluorophenyl)-3-aminoisoxazolo[4,5-c]pyridin-7-yl)-1H-pyrazol-1-yl)methyl dihydrogen phosphate]
[3]
  Plasma conversion rate Mouse: + + +
[4]
  Plasma conversion rate Human: + + +

## CC(=O)c1cc(-c2ncc(-c3cnn(COC(=O)N(C)c4ncccc4COP(=O)(O)O)c3)c3onc(N)c23)c(F)cc1N [Example 12(1), (4-(5-(5-acetyl-4-amino-2-fluorophenyl)-3-aminoisoxazolo[4,5-c]pyridin-7-yl)-1H-pyrazol-1-yl)methyl methyl(3-((phosphonooxy)methyl)pyridin-2-yl)carbamate]
[3]
  Plasma conversion rate Mouse: + (the conversion rate of each example compound in the table to the compound in Example 3 is less than 25%)
[4]
  Plasma conversion rate Human: + +

## CNCC(=O)OCc1cccnc1N(C)C(=O)OC(C)n1cc(-c2cnc(-c3cc(C(C)=O)c(N)cc3F)c3c(N)noc23)cn1 (centres unmarked) [Example 12(2), (2-(((1-(4-(4-(5-acetyl-4-amino-2-fluorophenyl)-3-aminoisoxazolo[4,5-c]pyridin-7-yl)-1H-pyrazol-1-yl)ethoxy)carbonyl)(methyl)amino)pyridin-3-yl)methyl methylglycinate]
[3]
  Plasma conversion rate Mouse: + + +
[4]
  Plasma conversion rate Human: + + +

## CNCC(=O)OCc1cccnc1N(C)C(=O)OCn1cc(-c2cnc(-c3cc(C(C)=O)c(N)cc3F)c3c(N)noc23)cn1.Cl [Example 12(3), 2-((2-((((4-(4-(5-acetyl-4-amino-2-fluorophenyl)-3-aminoisoxazolo[4,5-c]pyridin-7-yl)-1H-pyrazol-1-yl)methoxy)carbonyl)(methyl)amino)pyridin-3-yl)methoxy)-N-methyl-2-oxoethane-1-ammonium chloride]
[3]
  Plasma conversion rate Mouse: + + +
[4]
  Plasma conversion rate Human: + + +

## CC(=O)c1cc(-c2ncc(-c3cnn(COC(=O)OCCN4CCOCC4)c3)c3onc(N)c23)c(F)cc1N.Cl [Example 12(4), (4-(4-(5-acetyl-4-amino-2-fluorophenyl)-3-aminoisoxazolo[4,5-c]pyridin-7-yl)-1H-pyrazol-1-yl)methyl (2-morpholinoethyl)carbonate hydrochloride]
[3]
  Plasma conversion rate Mouse: + + +
[4]
  Plasma conversion rate Human: + + +

## CC(=O)c1cc(-c2ncc(-c3cnn(COC(=O)OC[C@H]4OC(O)[C@H](O)[C@@H](O)[C@@H]4O)c3)c3onc(N)c23)c(F)cc1N (stereo partly drawn) [Example 12(5), (4-(4-(5-acetyl-4-amino-2-fluorophenyl)-3-aminoisoxazolo[4,5-c]pyridin-7-yl)-1H-pyrazol-1-yl)methyl (((2R,3S,4S,5R)-3,4,5,6-tetrahydroxytetrahydro-2H-pyran-2-yl)methyl) carbonate]
[3]
  Plasma conversion rate Mouse: + + +
[4]
  Plasma conversion rate Human: + + +

## CC(=O)c1cc(-c2ncc(-c3cnn(COC(=O)OC[C@H]4OC(O)[C@H](N)[C@@H](O)[C@@H]4O)c3)c3onc(N)c23)c(F)cc1N.Cl (stereo partly drawn) [Example 12(6), (4-(4-(5-acetyl-4-amino-2-fluorophenyl)-3-aminoisoxazolo[4,5-c]pyridin-7-yl)-1H-pyrazol-1-yl)methyl (((2R,3S,4R,5R)-5-amino-3,4,6-trihydroxytetrahydro-2H-pyran-2-yl)methyl) carbonate hydrochloride]
[3]
  Plasma conversion rate Mouse: + + +
[4]
  Plasma conversion rate Human: + + +

## CC(=O)c1cc(-c2ncc(-c3cnn(C(=O)NCC(=O)O)c3)c3onc(N)c23)c(F)cc1N [Example 12(9), (4-(4-(5-acetyl-4-amino-2-fluorophenyl)-3-aminoisoxazolo[4,5-c]pyridin-7-yl)-1H-pyrazole-1-carbonyl)glycine]
[3]
  Plasma conversion rate Mouse: + (the conversion rate of each example compound in the table to the compound in Example 3 is less than 25%)
[4]
  Plasma conversion rate Human: + (the conversion rate of each example compound in the table to the compound in Example 3 is less than 25%)

## COC(=O)n1cc(-c2cnc(-c3cc(C(C)=O)c(N)cc3F)c3c(N)noc23)cn1 [Example 12(10), methyl 4-(4-(5-acetyl-4-amino-2-fluorophenyl)-3-aminoisoxazolo[4,5-c]pyridin-7-yl)-1H-pyrazole-1-carboxylate]
[3]
  Plasma conversion rate Mouse: + + +
[4]
  Plasma conversion rate Human: + + +

## CC(=O)c1cc(-c2ncc(-c3cnn(COP(=O)(O)OCOC(=O)OC(C)C)c3)c3onc(N)c23)c(F)cc1N [Example 12(11), ((((4-(4-(5-acetyl-4-amino-2-fluorophenyl)-3-aminoisoxazolo[4,5-c]pyridin-7-yl)-1H-pyrazol-1-yl)methoxy)(hydroxy)phosphoryl)oxy)methyl isopropyl carbonate]
[3]
  Plasma conversion rate Mouse: + (the conversion rate of each example compound in the table to the compound in Example 3 is less than 25%)
[4]
  Plasma conversion rate Human: + (the conversion rate of each example compound in the table to the compound in Example 3 is less than 25%)

## CC(=O)c1cc(-c2ncc(-c3cnn(COC(=O)N4CCC(N5CCCCC5)CC4)c3)c3onc(N)c23)c(F)cc1N [Example 12, (4-(4-(5-acetyl-4-amino-2-fluorophenyl)-3-aminoisoxazolo[4,5-c]pyridin-7-yl)-1H-pyrazol-1-yl)methyl [1,4′-bipiperidine]-1′-carboxylate]
[3]
  Plasma conversion rate Mouse: + (the conversion rate of each example compound in the table to the compound in Example 3 is less than 25%)
[4]
  Plasma conversion rate Human: + (the conversion rate of each example compound in the table to the compound in Example 3 is less than 25%)
